Results reported in the NIST ThermoML archive (doi:10.1021/je700300y).
± gives the expanded uncertainty stated by the source.

Legend:
[1] = refractive index (Na D-line) (dimensionless); details: 298.15 K; 101.33 kPa; Liquid; Standard Abbe refractometry
[2] = 101.33 kPa, Liquid
[3] = xn = mol fraction of the nth substance listed; details: 101 kPa, Liquid

## CCO [ethanol]
[1]
  refractive index: 1.3595 ± 0.0007
[2]; 283.15 K
  mass density: 797.99 ± 0.23 kg/m3
[2]; 288.15 K
  mass density: 793.73 ± 0.23 kg/m3
[2]; 293.15 K
  mass density: 789.47 ± 0.24 kg/m3
[2]; 298.15 K
  mass density: 785.18 ± 0.24 kg/m3
[2]; 303.15 K
  mass density: 780.87 ± 0.24 kg/m3
[2]; 308.15 K
  mass density: 776.52 ± 0.25 kg/m3
[2]; 313.15 K
  mass density: 772.14 ± 0.25 kg/m3

## CO [methanol] + CCO
[3]; 283.15 K, x1 = 0.0729
  mass density: 798.11 ± 0.23 kg/m3
[3]; 283.15 K, x1 = 0.1632
  mass density: 798.27 ± 0.23 kg/m3
[3]; 283.15 K, x1 = 0.3251
  mass density: 798.58 ± 0.23 kg/m3
[3]; 283.15 K, x1 = 0.5592
  mass density: 799.14 ± 0.22 kg/m3
[3]; 283.15 K, x1 = 0.6349
  mass density: 799.35 ± 0.22 kg/m3
[3]; 283.15 K, x1 = 0.7182
  mass density: 799.6 ± 0.22 kg/m3
[3]; 283.15 K, x1 = 0.8027
  mass density: 799.88 ± 0.22 kg/m3
[3]; 283.15 K, x1 = 0.8714
  mass density: 800.12 ± 0.22 kg/m3
[3]; 283.15 K, x1 = 0.9485
  mass density: 800.43 ± 0.22 kg/m3
[3]; 288.15 K, x1 = 0.0729
  mass density: 793.83 ± 0.23 kg/m3
[3]; 288.15 K, x1 = 0.1632
  mass density: 793.97 ± 0.23 kg/m3
[3]; 288.15 K, x1 = 0.3251
  mass density: 794.22 ± 0.23 kg/m3
[3]; 288.15 K, x1 = 0.5592
  mass density: 794.68 ± 0.23 kg/m3
[3]; 288.15 K, x1 = 0.6349
  mass density: 794.85 ± 0.23 kg/m3
[3]; 288.15 K, x1 = 0.7182
  mass density: 795.07 ± 0.23 kg/m3
[3]; 288.15 K, x1 = 0.8027
  mass density: 795.3 ± 0.23 kg/m3
[3]; 288.15 K, x1 = 0.8714
  mass density: 795.51 ± 0.23 kg/m3
[3]; 288.15 K, x1 = 0.9485
  mass density: 795.78 ± 0.23 kg/m3
[3]; 293.15 K, x1 = 0.0729
  mass density: 789.54 ± 0.23 kg/m3
[3]; 293.15 K, x1 = 0.1632
  mass density: 789.64 ± 0.23 kg/m3
[3]; 293.15 K, x1 = 0.3251
  mass density: 789.84 ± 0.23 kg/m3
[3]; 293.15 K, x1 = 0.5592
  mass density: 790.2 ± 0.23 kg/m3
[3]; 293.15 K, x1 = 0.6349
  mass density: 790.34 ± 0.23 kg/m3
[3]; 293.15 K, x1 = 0.7182
  mass density: 790.52 ± 0.23 kg/m3
[3]; 293.15 K, x1 = 0.8027
  mass density: 790.71 ± 0.23 kg/m3
[3]; 293.15 K, x1 = 0.8714
  mass density: 790.89 ± 0.23 kg/m3
[3]; 293.15 K, x1 = 0.9485
  mass density: 791.1 ± 0.23 kg/m3
[3]; 298.15 K, x1 = 0.0729
  mass density: 785.23 ± 0.24 kg/m3
[3]; 298.15 K, x1 = 0.1632
  mass density: 785.3 ± 0.24 kg/m3
[3]; 298.15 K, x1 = 0.3251
  mass density: 785.44 ± 0.24 kg/m3
[3]; 298.15 K, x1 = 0.5592
  mass density: 785.7 ± 0.24 kg/m3
[3]; 298.15 K, x1 = 0.6349
  mass density: 785.81 ± 0.24 kg/m3
[3]; 298.15 K, x1 = 0.7182
  mass density: 785.95 ± 0.24 kg/m3
[3]; 298.15 K, x1 = 0.8027
  mass density: 786.11 ± 0.23 kg/m3
[3]; 298.15 K, x1 = 0.8714
  mass density: 786.25 ± 0.23 kg/m3
[3]; 298.15 K, x1 = 0.9485
  mass density: 786.43 ± 0.23 kg/m3
[3]; 303.15 K, x1 = 0.0729
  mass density: 780.89 ± 0.24 kg/m3
[3]; 303.15 K, x1 = 0.1632
  mass density: 780.94 ± 0.24 kg/m3
[3]; 303.15 K, x1 = 0.3251
  mass density: 781.02 ± 0.24 kg/m3
[3]; 303.15 K, x1 = 0.5592
  mass density: 781.19 ± 0.24 kg/m3
[3]; 303.15 K, x1 = 0.6349
  mass density: 781.26 ± 0.24 kg/m3
[3]; 303.15 K, x1 = 0.7182
  mass density: 781.36 ± 0.24 kg/m3
[3]; 303.15 K, x1 = 0.8027
  mass density: 781.49 ± 0.24 kg/m3
[3]; 303.15 K, x1 = 0.8714
  mass density: 781.59 ± 0.24 kg/m3
[3]; 303.15 K, x1 = 0.9485
  mass density: 781.73 ± 0.24 kg/m3
[3]; 308.15 K, x1 = 0.0729
  mass density: 776.52 ± 0.24 kg/m3
[3]; 308.15 K, x1 = 0.1632
  mass density: 776.54 ± 0.24 kg/m3
[3]; 308.15 K, x1 = 0.3251
  mass density: 776.57 ± 0.24 kg/m3
[3]; 308.15 K, x1 = 0.5592
  mass density: 776.65 ± 0.24 kg/m3
[3]; 308.15 K, x1 = 0.6349
  mass density: 776.69 ± 0.24 kg/m3
[3]; 308.15 K, x1 = 0.7182
  mass density: 776.76 ± 0.24 kg/m3
[3]; 308.15 K, x1 = 0.8027
  mass density: 776.84 ± 0.24 kg/m3
[3]; 308.15 K, x1 = 0.8714
  mass density: 776.9 ± 0.24 kg/m3
[3]; 308.15 K, x1 = 0.9485
  mass density: 777.01 ± 0.24 kg/m3
[3]; 313.15 K, x1 = 0.0729
  mass density: 772.12 ± 0.25 kg/m3
[3]; 313.15 K, x1 = 0.1632
  mass density: 772.11 ± 0.25 kg/m3
[3]; 313.15 K, x1 = 0.3251
  mass density: 772.09 ± 0.25 kg/m3
[3]; 313.15 K, x1 = 0.5592
  mass density: 772.08 ± 0.25 kg/m3
[3]; 313.15 K, x1 = 0.6349
  mass density: 772.09 ± 0.25 kg/m3
[3]; 313.15 K, x1 = 0.7182
  mass density: 772.12 ± 0.25 kg/m3
[3]; 313.15 K, x1 = 0.8027
  mass density: 772.16 ± 0.25 kg/m3
[3]; 313.15 K, x1 = 0.8714
  mass density: 772.19 ± 0.25 kg/m3
[3]; 313.15 K, x1 = 0.9485
  mass density: 772.26 ± 0.25 kg/m3

## CO [methanol]
[1]
  refractive index: 1.327 ± 0.0007
[2]; 283.15 K
  mass density: 800.67 ± 0.23 kg/m3
[2]; 288.15 K
  mass density: 795.98 ± 0.23 kg/m3
[2]; 293.15 K
  mass density: 791.28 ± 0.23 kg/m3
[2]; 298.15 K
  mass density: 786.57 ± 0.24 kg/m3
[2]; 303.15 K
  mass density: 781.85 ± 0.24 kg/m3
[2]; 308.15 K
  mass density: 777.1 ± 0.25 kg/m3
[2]; 313.15 K
  mass density: 772.32 ± 0.25 kg/m3

## O [water]
[1]
  refractive index: 1.3326 ± 0.0007
